# In patent publication US20010035503A1, “Method and apparatus for non-invasive detection of angiogenic and anti-angiogenic activity in living tissue” (priority 2000, published 2001):
# Assays:
# [1] = tested on: C3H murine mammary carcinoma; assay: anti-vascular effects by combined LDF and NIRS measurements in mice with tumor transplants; type: in vivo; conditions: for LDF: difference between post- and pre-treatment as percent of pre-treatment value; for LDF / NIRS* / pO2 after treatment % < 5 mm Hg: median, N = 3; for LDF / NIRS* / pO2 after treatment median / pO2 after treatment % < 5 mm Hg: i.p.: FAA 150, CA4B 250, DMX-AA 20, HDZ 5 mg/kg; for tumor blood perfusion estimated by LDF / hemoglobin concentration: in words; for hemoglobin concentration: from NIRS; for NIRS*: reflectance (1/absorbance), increase = decrease in hemoglobin concentration, post- minus pre-treatment as percent of pre-treatment; for pO2 after treatment median: tumor pO2, N = 3; for pO2 after treatment % < 5 mm Hg: tumor pO2 values below 5 mm Hg
# Protocol: Anti-vascular effects on C3H murine mammary carcinoma were determined by combined LDF and NIRS measurements, in mice with tumor transplants using the apparatus shown in FIG. 9.
# The three agents DMX-AA, FAA and CA4B are antivascular agents, which by various mechanisms cause collapse of tumor vasculature and consequently a decrease in tumor blood flow and oxygenation. Hydralazine (HDZ) is a well known anti-hypertensive agent that causes peripheral vasodilatation, i.e. a drop in vascular flow resistance leading to an acute decrease in tumor perfusion (a.k.a. the “steal effect”), because of the lack of autoregulation of tumor vessels. Numbers in the table represent differences between post-and pre-treatment measurements expressed as percent of the pre-treatment value. Number of experiments per drug=3.
# U87 and MLL tumor lines = assay: tumor growth, NIRS recordings and Chalkley counts during continuous anti-angiogenic treatment; type: in vivo, nude mice
# Source text: The relationship between non-invasive measures of tumor hemoglobin concentration by NIRS and estimates of vessel density by Chalkley counts was examined in seven tumor lines (gliomas: U87, U118, U373; Small Cell Lung Cancer (SCLC): 54A, 54B, DMS79; rat prostate cancer: MLL) on the hind leg of nude mice. Chalkley counts were obtained from CD31 immunostained cryosections. The NIRS absorbance increased with the tumor size until a tumor line specific plateau was reached from tumor sizes of 100-150 mm^3.
# We also evaluated the correlation between tumor size and NIRS recordings during untreated growth for all seven tumor lines, and during continuous anti-angiogenic treatment with TNP-470 for two tumor lines, U87 and MLL.
# [2] = tested on: bFGF induced angiogenic response; assay: anti-angiogenic activity in bFGF stimulated animals, LDF and NIRS recordings; type: in vivo, mouse
# Protocol: (§1) The apparatus as shown on FIG. 9 was tested in a mouse model with a controlled angiogenic response induced by local application of an angiogenic agent, basic fibroblast growth factor (bFGF). Parallel experiments were performed with identical setup in order to correlate the sensitivity of near infrared spectroscopy (NIRS) compared to laser doppler flowmetry (LDF) for estimation of angiogenic and anti-angiogenic responses.
# (§2) A slow release pellet (Innovative Res.) containing 100 micrograms of bFGF released at a constant rate over 10 days was implanted under the skin at three different locations in the mouse. The angiogenic response to the active substance was evaluated in comparison with placebo pellets. […] Median values and interquartile range is shown.
# The ability to detect anti-angiogenic properties of therapeutic agents in these preparations was tested in the same technical settings by comparing treated versus untreated animals.
# FIGS. 3A and 3B show the anti-angiogenic activity after treatment with TNP-470 (7 mg/kg q.d.x7, n=13). […] LDF recordings were performed on day 6, whereas NIRS recordings were performed on day 7 after implantation. Median values and interquartile range is shown.
# angiogenic response = angiogenic response to bFGF slow release pellet implanted under the skin, LDF and NIRS recordings; type: in vivo, mouse; conditions: pellet with 100 micrograms bFGF vs placebo pellets, p<0.05 vs placebo, p<0.001 vs controls
# Protocol: as §1, §2
# [3] = treated vs untreated tumors of similar size, U87 and MLL
Compound,LDF [1] [%],tumor blood perfusion estimated by LDF [1],hemoglobin concentration [1],NIRS* [1],pO2 after treatment median [1],pO2 after treatment % < 5 mm Hg [1] [%],also measured
Cc1ccc2c(=O)c3cccc(CC(=O)O)c3oc2c1C [DMX-AA],−74,decrease in perfusion,unchanged hemoglobin concentration,+1%,2.8,66,–
O=C(O)Cc1cccc2c(=O)cc(-c3ccccc3)oc12 [FAA],−34,decrease in perfusion,unchanged hemoglobin concentration,+6%,1.5,69,–
"NNc1nncc2ccccc12 [HDZ, Hydralazine]",−93,–,–,+36%,1.9,85,–
CO[C@@H]1[C@H](OC(=O)NC(=O)CCl)CC[C@]2(CO2)[C@H]1[C@@]1(C)O[C@@H]1CC=C(C)C [TNP-470],–,–,–,–,–,–,"onset of tumor growth and the growth rate (U87 and MLL tumor lines; continuous treatment, U87 and MLL tumors): significantly retarded; Chalkley counts (U87 and MLL tumor lines; [3]): significantly lower; final NIRS recordings (U87 and MLL tumor lines; [3]): significantly lower; LDF recordings ([2]; compared to untreated bFGF stimulated animals, day 6, TNP-470 7 mg/kg q.d.x7 (p<0.05), dexamethasone 10 mg/kg q.d.x7 (p<0.001)): significantly lower; NIRS recordings ([2]; compared to untreated bFGF stimulated animals, day 7, TNP-470 7 mg/kg q.d.x7 (p<0.05), dexamethasone 10 mg/kg q.d.x7 (p<0.001)): significantly lower; anti-angiogenic activity ([2]; treated versus untreated animals): Significant anti-angiogenic activity"
basic fibroblast growth factor [bFGF],–,–,–,–,–,–,LDF recordings (angiogenic response; day 6 after implantation): significantly higher than placebo; NIRS recordings (angiogenic response; day 7 after implantation): significantly higher than placebo
